Results published in PMC10053230, “Constituents of the Stem Bark of Symphonia globulifera Linn. f. with Antileishmanial and Antibacterial Activities” (Molecules, 2023).
≈ marks a conversion by molar mass, not a printed value. Read-outs that look alike come from different tables or passages of the source.

How the values were obtained:
[1] = tested on: L. donovani NR-48822 promastigotes; assay: In vitro antileishmanial assay, resazurin colorimetric method; assay type: cell-based, Leishmania donovani; details: 28 h at 28 °C, triplicate; for IC50: Leishmania donovani, read-out: Antileishmanial Activity IC50 ± SD
Method: The antileishmanial activity on cultured L. donovani 1S (MHOM/SD/62/1S) promastigotes was evaluated using the resazurin colorimetric method as described by Siqueira-Neto et al. (2010) with little modifications. They were all assessed in triplicate at concentrations ranging from 100 to 0.16 µg/mL for the extract and 50–0.08 µg/mL for the compounds. Test plates were incubated for 28 h at 28 °C, followed by the addition of 1 mg/mL resazurin. The negative and positive controls were 0.1% DMSO and amphotericin B (10–0.016 µg/mL), respectively. The cytotoxicity profile of the crude extract and compounds was assessed using the Alamar blue assay (Mosman, 1983) against Raw 264.7 macrophage cells.

[2] = tested on: Raw 264.7 macrophage cells; assay: Cytotoxicity, Alamar blue assay; assay type: cell-based; details: for Selectivity Index SI (=CC50/IC50): CC50 Raw 264.7 macrophages / IC50 L. donovani
Method: (§1) (2010) with little modifications. […] Test plates were incubated for 28 h at 28 °C, followed by the addition of 1 mg/mL resazurin. […] The cytotoxicity profile of the crude extract and compounds was assessed using the Alamar blue assay (Mosman, 1983) against Raw 264.7 macrophage cells.

K. pneumoniae NR41388 = assay: Antibacterial broth microdilution (MIC); assay type: cell-based, Klebsiella pneumoniae
Method: (§2) The minimum inhibitory concentration (MIC) of the samples was evaluated following the broth microdilution method as described by Eloff, with light modifications. The extracts, compounds, and reference drug were dissolved in DMSO-MHB. […] Gentamicin was used as the positive control. Briefly, one hundred microliters of Mueller Hinton Broth was added to all wells of the 96-well plate, and 100 µL of the compounds/extracts was introduced into the wells in the first row (A) and mixed thoroughly. The sample mixture (100 µL) was removed from the well from row A to perform a twofold serial dilution down the rows (B–H). The last 100 µL was discarded. Then, 100 µL of the inoculum was introduced into the corresponding wells. The final volume in each well was 200 µL. Each extract concentration was assayed in triplicate and each test was performed twice. After an incubation period of 18 h at 37 °C, 20 µL of Alamar Blue was added to each well. The plates were then re-incubated for 30 min at 37 °C. A blue color in the well was scored as ‘‘no bacterial growth”, while a pink color was scored as a ‘‘growth occurrence”. MIC values were read at those concentrations where a pronounced change in color formation was noticed (from blue to pink).

[3] = Cytotoxicity, Alamar blue assay; assay type: cell-based; details: mouse; Raw 264.7 macrophage cells; read-out: Macrophages CC50 ± SD
Method: as §1

Salmonella typhi CPC = assay: Antibacterial broth microdilution (MIC); assay type: cell-based; details: Salmonella enterica, read-out: Antibacterial Activity MIC, St
Method: as §2

S. aureus ATCC25923 = assay: Antibacterial broth microdilution (MIC); assay type: cell-based; details: Staphylococcus aureus, read-out: Antibacterial Activity MIC, Sau
Method: as §2

S. enterica NR13555 = assay: Antibacterial broth microdilution (MIC); assay type: cell-based; details: Salmonella enterica, read-out: Antibacterial Activity MIC, Se
Method: as §2

[4] = tested on: Pseudomonas aeruginosa HM801; assay: Antibacterial broth microdilution (MIC); assay type: cell-based
Method: as §2

[5] = tested on: Staphylococcus aureus ATCC43300; assay: Antibacterial broth microdilution (MIC); assay type: cell-based; details: read-out: Antibacterial Activity MIC, Sa
Method: as §2

[6] = tested on: Klebsiella pneumoniae clinical isolate; assay: Antibacterial broth microdilution (MIC); assay type: cell-based; details: read-out: Antibacterial Activity MIC, Kpc
Method: as §2

[7] = Pseudomonas aeruginosa HM801, read-out: Antibacterial Activity MIC, Pa
[8] = Klebsiella pneumoniae clinical isolate

Compound	IC50 [1] [µg/mL]	CC50 [3] [µg/mL]	Selectivity Index SI (=CC50/IC50) [2]	MIC (Salmonella typhi CPC) [µg/mL]	MIC (S. aureus ATCC25923) [µg/mL]	MIC (S. enterica NR13555) [µg/mL]	MIC [5] [µg/mL]	also measured
1,5-dihydroxy-3-methoxyxanthone [Compound 10]								Antileishmanial Activity IC50 ± SD [1]: 47.04 ± 1.67 µg/mL; Macrophages CC50 ± SD ([2]; Raw 264.7 macrophage cells): >20 µg/mL
C[C@@H]1[C@H](O)[C@@H](C)/C=C/C=C/C=C/C=C/C=C/C=C/C=C/[C@H](O[C@@H]2O[C@H](C)[C@@H](O)[C@H](N)[C@@H]2O)C[C@@H]2O[C@](O)(C[C@@H](O)C[C@@H](O)[C@H](O)CC[C@@H](O)C[C@@H](O)CC(=O)O[C@H]1C)C[C@H](O)[C@H]2C(=O)O [Amphotericin B, reference compound]	0.048 (≈ 0.0519 µM)							
C=C(C)CCC1CC2(CC=C(C)C)C(=O)C(=C(O)c3ccc(O)c(O)c3)C(=O)C(CC=C(C)C)(C2=O)C1(C)CCC=C(C)C (stereo not shown) [Compound 1, guttiferone U]	12.9 ± 1.11 (≈ 21.4 µM)	28.1 ± 5.72 (≈ 46.5 µM)	2.17	3.9 (≈ 6.47 µM)	3.9 (≈ 6.47 µM)	62.5 (≈ 104 µM)	125 (≈ 207 µM)	Antibacterial Activity MIC, Kp (K. pneumoniae NR41388): 62.5 µg/mL; MIC [4, 7]: 3.9 µg/mL (≈ 6.47 µM); MIC [6, 8]: 3.9 µg/mL (≈ 6.47 µM)
CC(C)=CCCC(C)=CCCC(C)=CCCC1(C)CCC2=C(O1)C(C)(O)C(O)C2=O (stereo not shown) [Compound 4, 12-farnesyl-6,7-dihydroxy-7-methyl-3,4,6,7-tetrahydrocyclopenta[b]pyran-5(2H)-one]	14 ± 1.14 (≈ 33.7 µM)	> 20		31.2 (≈ 74.9 µM)	62.5 (≈ 150 µM)	125 (≈ 300 µM)	500 (≈ 1200 µM)	Antibacterial Activity MIC, Kp (K. pneumoniae NR41388): 62.5 µg/mL; MIC ([4]; Pseudomonas aeruginosa, HM801, read-out: Antibacterial Activity MIC, Pa): 31.2 µg/mL (≈ 74.9 µM); MIC ([6]; Klebsiella pneumoniae): 31.2 µg/mL (≈ 74.9 µM)
COc1cc2c(=O)c3c(O)c4c(c(CC=C(C)C)c3oc2c(O)c1OC)OC(C)(C)C=C4 [Compound 6, gaboxanthone]	16 ± 1.2 (≈ 36.4 µM)	> 20	>1.25					
COc1cc2c(=O)c3c(O)c4c(c(CC=C(C)C)c3oc2c(O)c1O)OC(C)(C)C=C4 [Compound 7, xanthone V2]	12.9 ± 1.11 (≈ 30.4 µM)	> 20	>1.54					
CC1(C)C=Cc2c(cc3oc4c(O)c5c(cc4c(=O)c3c2O)C=CC(C)(C)O5)O1 [Compound 8, pyranojacareubin]	12.9 ± 1.11 (≈ 32.9 µM)	> 20	>1.54					
CNC(C)C1CCC(N)C(OC2C(N)CC(N)C(OC3OCC(C)(O)C(NC)C3O)C2O)O1 (stereo not shown) [Gentamycin, reference compound]				0.048 (≈ 0.101 µM)	0.03 (≈ 0.0628 µM)	0.07 (≈ 0.147 µM)	0.07 (≈ 0.147 µM)	MIC [4, 7]: 0.048 µg/mL (≈ 0.101 µM); MIC [6, 8]: 0.048 µg/mL (≈ 0.101 µM)
